Data from patent US20050124497A1, “Delta1-pyrrolines and their use as pest control agents” (priority 2002, published 2005).

tested on: not listed separately; assay: log P by HPLC (reversed-phase C18), acidic range pH 2.3; type: physicochemical; conditions: reversed-phase C18 HPLC column; pH 2.3, 0.1% aqueous phosphoric acid/acetonitrile, 43° C.
Description: The log P values given in the Tables and Preparation Examples above are determined in accordance with EEC Directive 79/831 Annex V.A8 by HPLC (High Performance Liquid Chromatography) using a reversed-phase column (C 18). Temperature: 43° C.
The determination in the acidic range is carried out at pH 2.3 using the mobile phases 0.1% aqueous phosphoric acid and acetonitrile; linear gradient from 10% acetonitrile to 90% acetonitrile. In the Tables, the values are marked a).
Calibration is carried out using unbranched alkan-2-ones (of 3 to 16 carbon atoms) with known log P values (determination of the log P values by retention times using linear interpolation between two successive alkanones).

Compound	chromatographic logP
Fc1ccc2nc(-c3ccc(C4CCC(c5c(F)cccc5F)=N4)cc3)oc2c1 (stereo not shown) [Example 5, 2-{4-[5-(2,6-difluorophenyl)-3,4-dihydro-2H-pyrrol-2-yl]phenyl}-6-fluoro-1,3-benzoxazole]	3.53
CC(C)(C)c1ccc2oc(-c3ccc(C4CCC(c5c(F)cccc5F)=N4)cc3)nc2c1 (stereo not shown) [Example 1, 5-tert-butyl-2-{4-[5-(2,6-difluorophenyl)-3,4-dihydro-2H-pyrrol-2-yl]phenyl}-1,3-benzoxazole]	5.11
Fc1cccc(F)c1C1=NC(c2ccc(-c3nc4ncccc4o3)cc2)CC1 (stereo not shown) [Example 4, 2-{4-[5-(2,6-difluorophenyl)-3,4-dihydro-2H-pyrrol-2-yl]-phenyl}[1,3]oxazole[4,5-b]pyridine]	2.06
O=C(Nc1ncccc1O)c1ccc(C2CCC(c3c(F)cccc3F)=N2)cc1 (stereo not shown) [II-4, 4-[5-(2,6-difluorophenyl)-3,4-dihydro-2H-pyrrol-2-yl]-N-(3-hydroxy-2-pyridinyl)benzamide]	1.16
Fc1cccc(F)c1C1=NC(c2ccc(-c3nc4cc(SC(F)(F)F)ccc4o3)cc2)CC1 (stereo not shown) [Example 2]	4.98
Fc1cccc(F)c1C1=NC(c2ccc(-c3nc4ccccc4o3)cc2)CC1 (stereo not shown) [Example 3, 2-{4-[5-(2,6-difluorophenyl)-3,4-dihydro-2H-pyrrol-2-yl]phenyl}-1,3-benzoxazole]	3.22
CC(C)(C)c1ccc(O)c(NC(=O)c2ccc(C3CCC(c4c(F)cccc4F)=N3)cc2)c1 (stereo not shown) [II-1, N-(5-tert-btyl-2-hydroxyphenyl)-4-[5-(2,6-difluorohenyl)-3,4-dihydro-2H-pyrrol-2-yl]benzamide]	3.22

tested on: Heliothis armigera caterpillars; assay: Heliothis armigera test; type: in vivo; conditions: 100 ppm active compound, soya bean shoots dipped, kill after 7 d
Description: Solvent: 7 parts by weight of dimethylformamide
Emulsifier: 2 parts by weight of alkylaryl polyglycol ether
(§1) To produce a suitable preparation of active compound, 1 part by weight of active compound is mixed with the stated amounts of solvent and emulsifier, and the concentrate is diluted with emulsifier-containing water to the desired concentration.
Soya bean shoots (Glycine max) are treated by being dipped into the preparation of active compound of the desired concentration and are populated with Heliothis armigera caterpillars while the leaves are still moist.
(§2) After the desired period of time, the kill in % is determined. 100% means that all caterpillars have been killed; 0% means that none of the caterpillars have been killed.

Compound	Efficacy in % after 7 d [%]
Fc1cccc(F)c1C1=NC(c2ccc(-c3nc4cc(Br)ccc4o3)cc2)CC1 (stereo not shown) [drawing 33]	100
Fc1cccc(F)c1C1=NC(c2ccc(-c3nc4cc(C(F)(F)F)ccc4s3)cc2)CC1 (stereo not shown) [drawing 32]	100
Fc1cccc(F)c1C1=NC(c2ccc(-c3nc4cc(OC(F)(F)F)ccc4o3)cc2)CC1 (stereo not shown) [drawing 28]	100
Fc1cc(-c2nc3cc(OC(F)(F)F)ccc3o2)ccc1C1CCC(c2c(F)cccc2F)=N1 (stereo not shown) [drawing 30]	100
Fc1cccc(F)c1C1=NC(c2ccc(-c3nc4cc(C(F)(F)F)c(Cl)cc4o3)cc2)CC1 (stereo not shown) [drawing 27]	100
Fc1cc(-c2nc3cc(Cl)ccc3o2)ccc1C1CCC(c2c(F)cccc2F)=N1 (stereo not shown) [drawing 31]	100
Fc1cccc(F)c1C1=NC(c2ccc(-c3nc4cc(-c5ccccc5)ccc4o3)cc2)CC1 (stereo not shown) [drawing 29]	100

tested on: Meloidogyne incognita egg/larvae suspension; assay: Meloidogyne test; type: in vivo; conditions: 20 ppm active compound, lettuce in sand, nematicidal action by gall formation
Description: To produce a suitable preparation of active compound, 1 part by weight of active compound is mixed with the stated amounts of solvent and emulsifier, and the concentrate is diluted with water to the desired concentration.
Containers are filled with sand, solution of active compound, Meloidogyne incognita egg/larvae suspension and lettuce seeds. The lettuce seeds germinate and the plants develop. On the roots, galls are formed.
After the desired period of time, the nematicidal action is determined in % by gall formation. 100% means that no galls were found; 0% means that the number of galls on the treated plants corresponds to that of the untreated control.

Compound	Efficacy in % after 7 d [%]
Fc1cccc(F)c1C1=NC(c2ccc(-c3nc4ccccc4s3)cc2)CC1 (stereo not shown) [drawing 35]	80
O=C(Nc1ncccc1O)c1ccc(C2CCC(c3c(F)cccc3F)=N2)cc1 (stereo not shown) [drawing 34]	95
Fc1cccc(F)c1C1=NC(c2ccc(-c3nc4cc(Br)ccc4o3)cc2)CC1 (stereo not shown) [drawing 38]	80
Cc1cc2oc(-c3ccc(C4CCC(c5c(F)cccc5F)=N4)cc3)nc2c(C)c1Cl (stereo not shown)	98
CNS(=O)(=O)c1cc2oc(-c3ccc(C4CCC(c5c(F)cccc5F)=N4)cc3)nc2cc1Cl (stereo not shown)	80

tested on: larvae of the mustard beetle (Phaedon cochleariae); assay: Phaedon larvae test; type: in vivo; conditions: 100 ppm active compound, cabbage leaves dipped, kill after 7 d
Description: Phaedon Larvae Test [table] To produce a suitable preparation of active compound, 1 part by weight of active compound is mixed with the stated amounts of solvent and emulsifier, and the concentrate is diluted with emulsifier-containing water to the desired concentration. Cabbage leaves (Brassica oleracea) are treated by being dipped into the preparation of active compound of the desired concentration and are populated with larvae of the mustard beetle (Phaedon cochleariae) while the leaves are still moist.

Compound	Efficacy in % after 7 d [%]
Fc1cccc(F)c1C1=NC(c2ccc(-c3nc4cc(C(F)(F)F)c(Cl)cc4o3)cc2)CC1 (stereo not shown) [drawing 41]	100
Fc1cc(-c2nc3cc(-c4ccccc4)ccc3o2)ccc1C1CCC(c2c(F)cccc2F)=N1 (stereo not shown) [drawing 45]	100
Fc1cccc(F)c1C1=NC(c2ccc(-c3nc4cc(OC(F)(F)F)ccc4o3)cc2)CC1 (stereo not shown) [drawing 42]	100
Fc1cccc(F)c1C1=NC(c2ccc(-c3nc4cc(-c5ccccc5)ccc4o3)cc2)CC1 (stereo not shown) [drawing 43]	100
Fc1cc(-c2nc3cc(OC(F)(F)F)ccc3o2)ccc1C1CCC(c2c(F)cccc2F)=N1 (stereo not shown) [drawing 44]	100

same assay, conditions: 500 ppm active compound, cabbage leaves dipped, kill after 7 d

Compound	Efficacy in % after 7 d [%]
Fc1cccc(F)c1C1=NC(c2ccc(-c3nc4cc(SC(F)(F)F)ccc4o3)cc2)CC1 (stereo not shown) [drawing 40]	100
CC(C)(C)c1ccc2oc(-c3ccc(C4CCC(c5c(F)cccc5F)=N4)cc3)nc2c1 (stereo not shown) [drawing 39]	100

tested on: caterpillars of the armyworm (Spodoptera exigua); assay: Spodoptera exigua test; type: in vivo; conditions: 100 ppm active compound, cabbage leaves dipped, kill after 7 d
Description: as §1
Cabbage leaves (Brassica oleracea) are treated by being dipped into the preparation of active compound of the desired concentration and are populated with caterpillars of the armyworm (Spodoptera exigua) while the leaves are still moist.
as §2

Compound	Efficacy in % after 7 d [%]
Fc1cc(-c2nc3cc(-c4ccccc4)ccc3o2)ccc1C1CCC(c2c(F)cccc2F)=N1 (stereo not shown) [drawing 47]	100

tested on: caterpillars of the armyworm (Spodoptera frugiperda); assay: Spodoptera frugiperda test; type: in vivo; conditions: 168 h, 100 ppm active compound, cabbage leaves dipped, kill after 7 d, read-out: Efficacy in % after 7 d
Description: Spodoptera Frugiperda Test
as §1
Cabbage leaves (Brassica oleracea) are treated by being dipped into the preparation of active compound of the desired concentration and are populated with caterpillars of the armyworm (Spodoptera frugiperda) while the leaves are still moist.
as §2

Compound	pest or weed control at 100 ppm [%]
Fc1cccc(F)c1C1=NC(c2ccc(-c3nc4cc(Cl)cc(Cl)c4o3)cc2)CC1 (stereo not shown)	100
CN(C)S(=O)(=O)c1cc2oc(-c3ccc(C4CCC(c5c(F)cccc5F)=N4)cc3)nc2cc1Cl (stereo not shown) [drawing 58]	100
Fc1cccc(F)c1C1=NC(c2ccc(-c3nc4cc(Cl)ccc4o3)cc2)CC1 (stereo not shown)	100
Fc1cc(-c2nc3cc(Cl)ccc3o2)ccc1C1CCC(c2c(F)cccc2F)=N1 (stereo not shown) [drawing 59]	100
Cc1ccccc1C1=NC(c2ccc(-c3nc4ccccc4o3)cc2)CC1 (stereo not shown)	100
Fc1cccc(F)c1C1=NC(c2ccc(-c3nc4cc(C(F)(F)F)ccc4s3)cc2)CC1 (stereo not shown) [drawing 60]	100

same assay, conditions: 168 h, 500 ppm active compound, cabbage leaves dipped, kill after 7 d, read-out: Efficacy in % after 7 d

Compound	pest or weed control at 500 ppm [%]
CC(C)(C)c1ccc2oc(-c3ccc(C4CCC(c5c(F)cccc5F)=N4)cc3)nc2c1 (stereo not shown) [drawing 50]	100
Fc1cccc(F)c1C1=NC(c2ccc(-c3nc4ncccc4o3)cc2)CC1 (stereo not shown) [drawing 49]	100
CC(C)(C)c1ccc(O)c(NC(=O)c2ccc(C3CCC(c4c(F)cccc4F)=N3)cc2)c1 (stereo not shown) [drawing 55]	100
Fc1cccc(F)c1C1=NC(c2ccc(-c3nc4cc(SC(F)(F)F)ccc4o3)cc2)CC1 (stereo not shown) [drawing 52]	100
Fc1ccc2nc(-c3ccc(C4CCC(c5c(F)cccc5F)=N4)cc3)oc2c1 (stereo not shown) [drawing 54]	100

same assay, conditions: in Brassica oleracea, 168 h, read-out: Efficacy in % after 7 d

Compound	pest or weed control at 500 ppm [%]
Fc1cccc(F)c1C1=NC(c2ccc(-c3nc4ccccc4o3)cc2)CC1 (stereo not shown) [drawing 48]	100
O=[N+]([O-])c1cc2oc(-c3ccc(C4CCC(c5c(F)cccc5F)=N4)cc3)nc2cc1Cl (stereo not shown)	100

tested on: greenhouse red spider mite (Tetranychus urticae); assay: Tetranychus test (OP-resistant/dip treatment); type: in vivo; conditions: 168 h, 100 ppm active compound, bean plants dipped, all stages, after 7 d, read-out: Efficacy in % after 7 d
Description: Tetranychus Test (OP-Resistant/Dip Treatment)
as §1
Bean plants (Phaseolus vulgaris) which are heavily infested by all stages of the greenhouse red spider mite (Tetranychus urticae) are treated by being dipped into a preparation of active compound of the desired, concentration.
After the desired period of time, the effect in % is determined. 100% means that all spider mites have been killed; 0% means that none of the spider mites have been killed.

Compound	pest or weed control at 100 ppm [%]
CN(C)S(=O)(=O)c1cc2oc(-c3ccc(C4CCC(c5c(F)cccc5F)=N4)cc3)nc2cc1Cl (stereo not shown) [drawing 64]	90
Fc1cccc(F)c1C1=NC(c2ccc(-c3nc4ccccc4s3)cc2)CC1 (stereo not shown) [drawing 65]	99
Fc1cccc(F)c1C1=NC(c2ccc(-c3nc4cc(C(F)(F)F)cc(C(F)(F)F)c4o3)cc2)CC1 (stereo not shown)	100
Fc1cc(-c2nc3cc(-c4ccccc4)ccc3o2)ccc1C1CCC(c2c(F)cccc2F)=N1 (stereo not shown) [drawing 68]	99
Fc1cccc(F)c1C1=NC(c2ccc(-c3nc4cc(C(F)(F)F)ccc4s3)cc2)CC1 (stereo not shown) [drawing 69]	90
Fc1cccc(F)c1C1=NC(c2ccc(-c3nc4cc(C(F)(F)F)cc(Cl)c4o3)cc2)CC1 (stereo not shown)	95
Fc1cccc(F)c1C1=NC(c2ccc(-c3nc4cc(C(F)(F)F)c(Cl)cc4o3)cc2)CC1 (stereo not shown) [drawing 63]	98
Fc1cc(-c2nc3cc(Cl)ccc3o2)ccc1C1CCC(c2c(F)cccc2F)=N1 (stereo not shown) [drawing 67]	95
Fc1cc(-c2nc3ccccc3o2)ccc1C1CCC(c2c(F)cccc2F)=N1 (stereo not shown)	95
